Holding throughout (type): cell-based
Assay [1] has as its target T1, hGIPR (Homo sapiens, UniProt P48546).
T1 sequence (P48546 22-466): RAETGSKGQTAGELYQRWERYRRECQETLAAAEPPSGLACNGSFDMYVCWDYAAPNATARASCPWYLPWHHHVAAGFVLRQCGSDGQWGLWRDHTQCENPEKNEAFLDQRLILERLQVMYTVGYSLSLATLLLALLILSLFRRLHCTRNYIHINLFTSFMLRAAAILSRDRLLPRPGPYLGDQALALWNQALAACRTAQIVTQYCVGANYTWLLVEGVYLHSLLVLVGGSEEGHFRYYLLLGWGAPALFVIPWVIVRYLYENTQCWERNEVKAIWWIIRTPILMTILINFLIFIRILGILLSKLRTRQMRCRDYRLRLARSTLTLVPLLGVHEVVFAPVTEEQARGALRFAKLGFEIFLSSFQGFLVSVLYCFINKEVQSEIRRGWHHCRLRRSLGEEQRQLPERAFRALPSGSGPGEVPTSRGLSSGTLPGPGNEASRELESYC
The assay is described as follows: Functional cAMP activity in the presence of 1% HSA. As to conditions: read-out: cAMP Rel EC50, hGIPR.

Assay [2] concerns the target T1, hGIPR. The assay is described as follows: Functional cAMP activation in the presence of 0.1% casein (no HSA). As to conditions: in the presence of 0.1% casein (no HSA); geometric mean; read-out: Relative cAMP EC50, hGIPR.
For assay [3], the target named is T2, hGLP-1R (Homo sapiens, UniProt P43220). Described as above. The following applies: in the presence of 0.1% casein (no HSA); geometric mean; read-out: Relative cAMP EC50, hGLP-1R.
The next assay concerns the target human GcgR (Homo sapiens, UniProt P47871). Kind of assay: Functional cAMP activity in the presence of 1% HSA. The following applies: read-out: cAMP Rel EC50, hGcgR.
A further assay concerns the target hGcgR (Homo sapiens, UniProt P47871). Kind of assay: Functional cAMP activation in the presence of 0.1% casein (no HSA). The following applies: in the presence of 0.1% casein (no HSA); geometric mean; read-out: Relative cAMP EC50, hGcgR.
Assay [4] has as its target T2, hGLP-1R. Kind of assay: Functional cAMP activity in the presence of 1% HSA. As to conditions: read-out: cAMP Rel EC50, hGLP-1R.

This note sets out measurements from US20240270821A1, “GIP/GLP1/GCG TRI-RECEPTOR AGONISTS AND USES THEREOF” (priority 2023, published 2024).

pEC50: −log10 of the molar value. Where two headings read alike, the source gives them in different places. Starred links: 1 amine or outer side, 2 acyl side, 3 side chain; linkers in the order of their positions; H or OH if unused. Non-standard residues stand in square brackets, D forms with d. Residues, ends and D or L forms follow the SMILES beside them. Groups on a side chain read outwards from the residue. *: point of attachment. C20 diacid = O=C(O)CCCCCCCCCCCCCCCCCCC(=O)*; C18 diacid = O=C(O)CCCCCCCCCCCCCCCCC(=O)*; αMePhe(2-F) = C[C@](N)(Cc1ccccc1F)C(=O)O; γGlu = O=C(O)[C@H](CCC(=O)[*:2])N[*:1]; αMeY = C[C@](N)(Cc1ccc(O)cc1)C(=O)O; 4Pal = N[C@@H](Cc1ccncc1)C(=O)O; αMeL = CC(C)C[C@](C)(N)C(=O)O; αMeS = C[C@](N)(CO)C(=O)O; Orn = NCCC[C@H](N)C(=O)O; AEEA = NCCOCCOCC(=O)O; Aib = CC(C)(N)C(=O)O
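Wherever Relative cAMP EC50, hGIPR is given: intracellular cAMP rise after 30 min at 37 °C read by HTRF against a standard curve, scaled between buffer alone (0%) and top control ligand concentration (100%), four-parameter fit.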
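Wherever Relative cAMP EC50, hGLP-1R is given: intracellular cAMP rise after 30 min at 37 °C read by HTRF, normalized between buffer only (0%) and maximal control ligand (100%), four-parameter variable-slope fit.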
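Wherever Relative cAMP EC50, hGcgR is given: intracellular cAMP rise after 30 min at 37 °C, read by HTRF against a cAMP standard curve, scaled from buffer only (0%) to maximal control ligand response (100%).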

human GcgR, sequence (P47871 26-477): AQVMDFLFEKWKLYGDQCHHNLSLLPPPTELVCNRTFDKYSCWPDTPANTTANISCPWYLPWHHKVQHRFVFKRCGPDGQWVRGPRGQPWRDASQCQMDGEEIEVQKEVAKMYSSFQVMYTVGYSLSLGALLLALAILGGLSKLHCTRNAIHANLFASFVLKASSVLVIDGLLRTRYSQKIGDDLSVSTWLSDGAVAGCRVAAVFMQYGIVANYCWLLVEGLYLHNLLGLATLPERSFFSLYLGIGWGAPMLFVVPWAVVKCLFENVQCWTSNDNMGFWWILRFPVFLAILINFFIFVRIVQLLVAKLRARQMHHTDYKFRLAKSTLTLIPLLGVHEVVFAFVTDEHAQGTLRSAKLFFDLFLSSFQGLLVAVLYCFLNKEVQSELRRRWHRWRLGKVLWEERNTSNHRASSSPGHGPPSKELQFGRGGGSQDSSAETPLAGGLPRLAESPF
hGcgR, sequence (P47871 26-477): as above
T2 sequence (P43220 24-463): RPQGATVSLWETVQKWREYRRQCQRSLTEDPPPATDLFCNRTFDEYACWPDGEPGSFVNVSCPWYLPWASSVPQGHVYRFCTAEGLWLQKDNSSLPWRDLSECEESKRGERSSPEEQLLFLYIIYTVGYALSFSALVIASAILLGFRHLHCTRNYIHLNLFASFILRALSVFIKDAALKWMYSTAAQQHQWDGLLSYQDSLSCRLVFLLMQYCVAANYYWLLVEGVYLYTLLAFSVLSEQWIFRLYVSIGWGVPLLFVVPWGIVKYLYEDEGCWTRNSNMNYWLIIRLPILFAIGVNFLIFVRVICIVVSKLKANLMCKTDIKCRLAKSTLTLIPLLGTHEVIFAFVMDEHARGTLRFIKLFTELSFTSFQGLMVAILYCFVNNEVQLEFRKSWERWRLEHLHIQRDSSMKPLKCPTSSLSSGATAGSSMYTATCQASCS

Usually pEC50 stands for −log10 of the EC50, conventionally taken in molar units. `CC[C@H](C)[C@H](NC(=O)[C@H](CC(C)C)NC(=O)[C@](C)(Cc1ccc(O)cc1)NC(=O)[C@@H](CCC(=O)O)NC(=O)[C@@H](NC(=O)[C@H](Cc1ccccc1)NC(=O)[C@H](CCCN)NC(=O)C(C)(C)NC(=O)[C@H](CCC(N)=O)NC(=O)[C@H](C)NC(=O)[C@H](CCCCNC(=O)CC[C@H](NC(=O)CC[C@H](NC(=O)CCCCCCCCCCCCCCCCC(=O)O)C(=O)O)C(=O)O)NC(=O)[C@H](CCCN)NC(=O)[C@H](CC(=O)O)NC(=O)[C@H](CC(C)C)NC(=O)[C@](C)(CC(C)C)NC(=O)[C@@H](NC(=O)[C@](C)(CO)NC(=O)[C@H](Cc1ccncc1)NC(=O)[C@H](CC(=O)O)NC(=O)[C@H](CO)NC(=O)[C@@H](NC(=O)[C@](C)(Cc1ccccc1F)NC(=O)[C@@H](NC(=O)CNC(=O)[C@H](CCC(N)=O)NC(=O)C(C)(C)NC(=O)[C@@H](N)Cc1ccc(O)cc1)[C@@H](C)O)[C@@H](C)O)[C@@H](C)CC)[C@@H](C)CC)C(=O)N[C@@H](CCC(=O)O)C(=O)NCC(=O)NCC(=O)N1CCC[C@H]1C(=O)N[C@@H](CO)C(=O)N[C@@H](CO)C(=O)NCC(=O)N[C@@H](CCC(=O)O)C(=O)N1CCC[C@H]1C(=O)N1CCC[C@H]1C(=O)N1CCC[C@H]1C(=O)N[C@@H](CO)C(N)=O` [Example 375] (H-Y[Aib]QGT[αMePhe(2-F)]TSD[4Pal][αMeS]I[αMeL]LD[Orn]K([γGlu-γGlu-C18 diacid])AQ[Aib][Orn]FI[dE][αMeY]LIEGGPSSGEPPPS-NH2): the pEC50 is 8.75 at hGIPR [1]; 10.78 at hGIPR [2]; 9.52 on hGLP-1R [3]; 6.86 at human GcgR; 8.88 on hGcgR; 7.74 at hGLP-1R [4].

With `CC[C@H](C)[C@H](NC(=O)[C@H](Cc1ccccc1)NC(=O)[C@H](CCCN)NC(=O)C(C)(C)NC(=O)[C@H](CCC(N)=O)NC(=O)[C@H](C)NC(=O)[C@H](CCCCNC(=O)COCCOCCNC(=O)CC[C@H](NC(=O)CC[C@H](NC(=O)CCCCCCCCCCCCCCCCC(=O)O)C(=O)O)C(=O)O)NC(=O)[C@H](CCCN)NC(=O)[C@H](CC(=O)O)NC(=O)[C@H](CC(C)C)NC(=O)[C@](C)(CC(C)C)NC(=O)[C@@H](NC(=O)[C@](C)(CO)NC(=O)[C@H](Cc1ccncc1)NC(=O)[C@H](CC(=O)O)NC(=O)[C@H](CO)NC(=O)[C@@H](NC(=O)[C@](C)(Cc1ccccc1F)NC(=O)[C@@H](NC(=O)CNC(=O)[C@H](CCC(N)=O)NC(=O)C(C)(C)NC(=O)[C@@H](N)Cc1ccc(O)cc1)[C@@H](C)O)[C@@H](C)O)[C@@H](C)CC)C(=O)N[C@H](CCC(=O)O)C(=O)N[C@@](C)(Cc1ccc(O)cc1)C(=O)N[C@@H](CC(C)C)C(=O)N[C@@H](CC(C)C)C(=O)N[C@@H](CCC(=O)O)C(=O)NCC(=O)NCC(=O)N1CCC[C@H]1C(=O)N[C@@H](CO)C(=O)N[C@@H](CO)C(=O)NCC(=O)N[C@@H](CCC(=O)O)C(=O)N1CCC[C@H]1C(=O)N1CCC[C@H]1C(=O)N1CCC[C@H]1C(=O)N[C@@H](CO)C(N)=O` [Example 376] (H-Y[Aib]QGT[αMePhe(2-F)]TSD[4Pal][αMeS]I[αMeL]LD[Orn]K([AEEA-γGlu-γGlu-C18 diacid])AQ[Aib][Orn]FI[dE][αMeY]LLEGGPSSGEPPPS-NH2), the pEC50 was 8.27 at hGIPR [1]; 10.45 on hGIPR [2]; 9.35 at hGLP-1R [3]; 6.94 on human GcgR; 8.77 on hGcgR; 7.59 at hGLP-1R [4].

For `CC[C@H](C)[C@H](NC(=O)[C@H](Cc1ccccc1)NC(=O)[C@H](CCCN)NC(=O)C(C)(C)NC(=O)[C@H](CCC(N)=O)NC(=O)[C@H](C)NC(=O)[C@H](CCCCNC(=O)COCCOCCNC(=O)CC[C@H](NC(=O)CCCCCCCCCCCCCCCCC(=O)O)C(=O)O)NC(=O)[C@H](CCCN)NC(=O)[C@H](CC(=O)O)NC(=O)[C@H](CC(C)C)NC(=O)[C@](C)(CC(C)C)NC(=O)[C@@H](NC(=O)[C@](C)(CO)NC(=O)[C@H](Cc1ccncc1)NC(=O)[C@H](CC(=O)O)NC(=O)[C@H](CO)NC(=O)[C@@H](NC(=O)[C@](C)(Cc1ccccc1F)NC(=O)[C@@H](NC(=O)CNC(=O)[C@H](CCC(N)=O)NC(=O)C(C)(C)NC(=O)[C@@H](N)Cc1ccc(O)cc1)[C@@H](C)O)[C@@H](C)O)[C@@H](C)CC)C(=O)N[C@H](CCC(=O)O)C(=O)N[C@@](C)(Cc1ccc(O)cc1)C(=O)N[C@@H](CC(C)C)C(=O)N[C@@H](CC(C)C)C(=O)N[C@@H](CCC(=O)O)C(=O)NCC(=O)NCC(=O)N1CCC[C@H]1C(=O)N[C@@H](CO)C(=O)N[C@@H](CO)C(=O)NCC(=O)N[C@@H](CCC(=O)O)C(=O)N1CCC[C@H]1C(=O)N1CCC[C@H]1C(=O)N1CCC[C@H]1C(=O)N[C@@H](CCC(=O)O)C(N)=O` [Example 377] (H-Y[Aib]QGT[αMePhe(2-F)]TSD[4Pal][αMeS]I[αMeL]LD[Orn]K([AEEA-γGlu-C18 diacid])AQ[Aib][Orn]FI[dE][αMeY]LLEGGPSSGEPPPE-NH2), the negative logarithm of the EC50 (pEC50) was 7.95 on hGIPR [1]; 10.42 on hGIPR [2]; 9.44 at hGLP-1R [3]; 6.79 at human GcgR; 8.87 at hGcgR; 7.53 at hGLP-1R [4].

Turning to `CC[C@H](C)[C@H](NC(=O)[C@H](Cc1ccccc1)NC(=O)[C@H](CCCN)NC(=O)C(C)(C)NC(=O)[C@H](CCC(N)=O)NC(=O)[C@H](C)NC(=O)[C@H](CCCCNC(=O)COCCOCCNC(=O)CC[C@H](NC(=O)CCCCCCCCCCCCCCCCC(=O)O)C(=O)O)NC(=O)[C@H](CCCN)NC(=O)[C@H](CC(=O)O)NC(=O)[C@H](CC(C)C)NC(=O)[C@](C)(CC(C)C)NC(=O)[C@@H](NC(=O)[C@](C)(CO)NC(=O)[C@H](Cc1ccncc1)NC(=O)[C@H](CC(=O)O)NC(=O)[C@H](CO)NC(=O)[C@@H](NC(=O)[C@](C)(Cc1ccccc1F)NC(=O)[C@@H](NC(=O)CNC(=O)[C@H](CCC(N)=O)NC(=O)C(C)(C)NC(=O)[C@@H](N)Cc1ccc(O)cc1)[C@@H](C)O)[C@@H](C)O)[C@@H](C)CC)C(=O)N[C@H](CCC(=O)O)C(=O)N[C@@](C)(Cc1ccc(O)cc1)C(=O)N[C@@H](CC(C)C)C(=O)N[C@@H](CC(C)C)C(=O)N[C@@H](CCC(=O)O)C(=O)NCC(=O)NCC(=O)N1CCC[C@H]1C(=O)N[C@@H](CO)C(=O)N[C@@H](CO)C(=O)NC(C)(C)C(=O)N[C@@H](CCC(=O)O)C(=O)N1CCC[C@H]1C(=O)N1CCC[C@H]1C(=O)N1CCC[C@H]1C(=O)N[C@@H](CCC(=O)O)C(N)=O` [Example 380] (H-Y[Aib]QGT[αMePhe(2-F)]TSD[4Pal][αMeS]I[αMeL]LD[Orn]K([AEEA-γGlu-C18 diacid])AQ[Aib][Orn]FI[dE][αMeY]LLEGGPSS[Aib]EPPPE-NH2), the pEC50 on hGIPR [1] (HEK-293 clonal cells expressing hGIPR, in the presence of 1% HSA, geometric mean of relative EC50) is 8.11; on hGIPR [2], 10.46; at hGLP-1R [3] it was 9.45; on human GcgR (HEK-293 clonal cells expressing hGcgR, in the presence of 1% HSA, geometric mean of relative EC50), 6.82; at hGcgR, 8.93; at hGLP-1R [4] (HEK-293 clonal cells expressing hGLP-1R, in the presence of 1% HSA, geometric mean of relative EC50), 7.51.

Turning to `CC[C@H](C)[C@H](NC(=O)[C@H](CC(C)C)NC(=O)[C@H](Cc1ccc(O)cc1)NC(=O)[C@H](CCC(=O)O)NC(=O)[C@@H](NC(=O)[C@H](Cc1ccccc1)NC(=O)[C@H](C)NC(=O)C(C)(C)NC(=O)[C@H](CCC(N)=O)NC(=O)[C@H](C)NC(=O)[C@H](CCCCNC(=O)COCCOCCNC(=O)COCCOCCNC(=O)CC[C@H](NC(=O)CCCCCCCCCCCCCCCCCCC(=O)O)C(=O)O)NC(=O)[C@H](CCCCN)NC(=O)[C@H](CC(=O)O)NC(=O)[C@H](CC(C)C)NC(=O)[C@](C)(CC(C)C)NC(=O)[C@@H](NC(=O)[C@](C)(CO)NC(=O)[C@H](Cc1ccc(O)cc1)NC(=O)[C@H](CC(=O)O)NC(=O)[C@H](CO)NC(=O)[C@@H](NC(=O)[C@H](Cc1ccccc1)NC(=O)[C@@H](NC(=O)CNC(=O)[C@H](CCC(N)=O)NC(=O)C(C)(C)NC(=O)[C@@H](N)Cc1ccc(O)cc1)[C@@H](C)O)[C@@H](C)O)[C@@H](C)CC)[C@@H](C)CC)C(=O)N[C@@H](CCC(=O)O)C(=O)NCC(=O)NCC(=O)N1CCC[C@H]1C(=O)N[C@@H](CO)C(=O)N[C@@H](CO)C(=O)NCC(=O)N[C@@H](C)C(=O)N1CCC[C@H]1C(=O)N1CCC[C@H]1C(=O)N1CCC[C@H]1C(=O)N[C@@H](CO)C(N)=O` [Example 382] (H-Y[Aib]QGTFTSDY[αMeS]I[αMeL]LDKK([AEEA-AEEA-γGlu-C20 diacid])AQ[Aib]AFIEYLIEGGPSSGAPPPS-NH2), the pEC50 on hGIPR [1] is 7.75; on hGIPR [2], 10.43; at hGLP-1R [3] it was 9.54; on human GcgR it was 5.98; on hGcgR, 8.43; on hGLP-1R [4], 7.21.
